Read-outs that look alike come from different tables or passages of the source.
Key:
[1] = tested on: PC-3; set-up: method as in earlier work; details: DTP database of the NCI; cited from earlier work
[2] = tested on: CCRF-CEM; set-up: method as in earlier work; details: DTP database of the NCI; cited from earlier work
[3] = tested on: MCF-7; set-up: method as in earlier work; details: DTP database of the NCI; cited from earlier work
[4] = tested on: HT-29; set-up: method as in earlier work; details: DTP database of the NCI; cited from earlier work
[5] = tested on: HTB-54; set-up: method as in earlier work; details: DTP database of the NCI, cited from earlier work
[6] = tested on: HT-29; assay: cells; details: Homo sapiens, HT-29, 48 h
[7] = tested on: PC-3; assay: cells; format: cell-based; details: Homo sapiens, PC-3, 48 h
Protocol: (§1) Cell lines were provided by the European Collection of Cell Cultures (ECACC) or by the American Type Culture Collection (ATCC). Seven cell lines were used: MCF-7 (breast adenocarnicoma), 184B5 (nonmalignant, mammary gland derived), CCRF-CEM (lymphoblastic leukemia), HT-29 (colon carcinoma), HTB-54 (lung carcinoma), BEAS-2B (nonmalignant, derived from the bronchial epithelium) and PC-3 (prostate carcinoma). MCF-7, CCRF-CEM, HT-29, HTB-54, BEAS-2B and PC-3 cell lines were grown in RPMI medium (Gibco) supplemented with 10% fetal bovine serum (FBS; Gibco), 100 units/mL penicillin and […] streptomycin (Gibco). 184B5 cells were grown in DMEM/F12 medium supplemented with 5% FBS, 1 × ITS (Lonza), 100 nM hydrocortisone (Aldich), 2 mM sodium pyruvate (Lonza), 20 ng/mL EGF (Sigma-Aldrich), 0.3 nM trans-retinoic acid (Sigma-Aldrich), 100 units/mL penicillin and […] streptomycin. Cells were maintained at 37 °C and 5% CO2.
(§2) The cytotoxic effect of each substance was tested by the MTT method. Each compound was initially dissolved in DMSO at a concentration of 0.01 M, and serial dilutions were prepared with nonsupplemented medium. The cytotoxic effect of each compound was tested at 50 and 10 µM as a first screening. […]
(§3) A total of 1 × 10^4 cells/well in 96-well plates were treated with increasing concentrations of the corresponding compounds for 48 h at 37 °C in a humidified atmosphere containing 5% CO2. Then, cells were incubated with 50 µL of MTT (2 mg/mL stock) for 4 h. The medium was then removed by aspiration, and the formazan crystals were dissolved in […] of DMSO. […] Data were obtained from at least 3 independent experiments performed in quadruplicate. The standard error of the means (SEM) for the cytotoxic parameters was calculated applying the standard deviation formula to the mean values of each parameter for the three independent experiments performed.
(§4) . Cisplatin was used as a standard drug. […]. […] The presence of electron-withdrawing groups (-NO2, -CF3, -Cl) in the phenyl ring favored the cytotoxic activity in the amides, but in the phosphoramidates, the best results were obtained for aliphatic chains methoxy (II.1b, II.2b) and ethoxy (II.1d, II.2d). […].

[8] = tested on: HTB-54; assay: cells; format: cell-based; details: Homo sapiens, HTB-54, 48 h
Protocol: as §1, §2, §3, §4

[9] = tested on: BEAS-2B; assay: MTT cytotoxicity in nonmalignant bronchial epithelium cells; format: cell-based
Protocol: as §1, §2, §3, §4
(§5) The lack of selectivity toward cancerous cells is one of the major issues during the discovery and development of new anticancer agents. Therefore, we evaluated the cytotoxic activity of our compounds against two cell lines derived from nonmalignant breast tissue (184B5) and no malignant bronchial epithelium (BEAS-2B) (Table 2). […].

[10] = as above; format: cell-based; details: human; nonmalignant cells, 48 h; read-out: LC50 BEAS-2B
Protocol: as §1, §2, §3, §4, §5

[11] = tested on: MCF-7; assay: cells; details: Homo sapiens, MCF7, 48 h
[12] = tested on: CCRF-CEM; assay: cells; details: Homo sapiens, 48 h
[13] = MTT cytotoxicity in nonmalignant mammary gland derived cells; format: cell-based; details: human; nonmalignant cells, 48 h; read-out: LC50 184B5
Protocol: as §1, §2, §3, §4, §5

[14] = tested on: 184B5; assay: as above; format: cell-based
Protocol: as §1, §2, §3, §4, §5

[15] = tested on: MCF-7; details: read-out: GI50 MCF-7; 48 h, average ± SEM

SMILES: N.N.[Cl][Pt][Cl] [Cp, cisplatin]
- GI50 [1]: 5 µM
- TGI PC-3 [1]: 50.1 µM
- GI50 [2]: 1 µM
- TGI CCRF-CEM [2]: 79.6 µM
- GI50 [3]: 3.2 µM
- TGI MCF-7 [3]: >100 µM
- GI50 [4]: 7.9 µM
- TGI HT-29 [4]: >100 µM
- TGI HTB54 [5]: 32.7 µM
- GI50 ([5]; read-out: GI50 HTB54): 9.6 µM

SMILES: COP(=O)(Nc1ccc([Se]C#N)cc1)OC [II.2b]
- activity at 10 µM ([6]; read-out: Cell growth (%) HT-29): -69.4%
- GI50 ([6]; read-out: GI50 HT-29): 2 ± 0.3 µM
- CC50 ([6]; read-out: LC50 HT-29): 5 ± 0.1 µM
- IC (TGI) ([6]; read-out: TGI HT-29): 3.5 ± 0.1 µM
- GI50 ([7]; read-out: GI50 PC-3): 6.4 ± 0.2 µM
- LC50 ([7]; read-out: LC50 PC-3): 49 ± 0.7 µM
- IC (TGI) ([7]; read-out: TGI PC-3): 9.3 ± 0.1 µM
- GI50 ([8]; read-out: GI50 HTB54): 6.2 ± 0.2 µM
- CC50 ([8]; read-out: LC50 HTB54): 34.6 ± 0.4 µM
- IC (TGI) ([8]; read-out: TGI HTB54): 8.6 ± 0.4 µM
- GI50 ([9]; Homo sapiens, BEAS-2B, 48 h, read-out: GI50 BEAS-2B): 5.22 µM
- IC (TGI) ([9]; Homo sapiens, BEAS-2B, 48 h, read-out: TGI BEAS-2B): 6.8 µM
- Selectivity index (SI) = GI50 (BEAS-2B)/GI50 (HTB-54) ([9]; lung): 0.84
- LC50 (50% lethal concentration) at 48 h [10]: 8.38 µM
- activity at 10 µM ([11]; read-out: Cell growth (%) MCF-7): -5.82%
- GI50 ([11]; read-out: GI50 MCF-7, 48 h, average ± SEM): < 1 µM
- CC50 ([11]; read-out: LC50 MCF-7): 9.1 ± 0.7 µM
- IC (TGI) ([11]; read-out: TGI MCF-7): 5 ± 1 µM
- activity at 10 µM ([12]; read-out: Cell growth (%) CCRF-CEM): -67.4%
- GI50 ([12]; read-out: GI50 CCRF-CEM): 1.6 ± 0.2 µM
- CC50 ([12]; read-out: LC50 CCRF-CEM): 4.8 ± 0.3 µM
- IC (TGI) ([12]; read-out: TGI CCRF-CEM): 3.2 ± 0.2 µM
- CC50 at 48 h [13]: 8.44 µM
- GI50 ([14]; Homo sapiens, 184B5, 48 h, read-out: GI50 184B5): 5.44 µM
- IC (TGI) ([14]; Homo sapiens, 184B5, 48 h, read-out: TGI 184B5): 6.94 µM
- Selectivity index (SI) = GI50 (184B5)/GI50 (MCF-7) ([14]; breast): 7.56
- GI50 [15]: 0.6 ± 0.2 µM

Source: paper PMC8069832, “New Amides and Phosphoramidates Containing Selenium: Studies on Their Cytotoxicity and Antioxidant Activities in Breast Cancer” (Antioxidants, 2021)
